# “Also recorded” adds a separate entry of the source.
# Columns and labels:
# iPSC-derived neurons = test: Whole-cell patch clamp recording of spontaneous postsynaptic currents; assay type: cell-based, human; settings: for EPSCs: 10-20 μM
# Procedure: Whole-cell patch clamp recordings were performed from cells co-cultured with astrocytes after 6 weeks of differentiation. The bath was constantly perfused with fresh HEPES-buffered saline as described herein. The recording micropipettes (tip resistance 3-6 MΩ) were filled with internal solution described in the Supplemental materials. Recordings were made using Axopatch 200B amplifier (Axon Instruments). Signals were filtered at 2 kHz and sampled at 5 kHz. The whole-cell capacitance was fully compensated. The series resistance was uncompensated but monitored during the experiment by the amplitude of the capacitive current in response to a 10-mV pulse. All recordings were performed at room temperature and chemicals were purchased from Sigma. Frequency and amplitude of spontaneous postsynaptic currents were measured with the Mini Analysis Program software (Synaptosoft, Leonia, N.J.). Statistical comparisons of WT and RTT groups were made using the non-parametric Kolmogorov-Smirnov two-tailed test, with a significance criterion of p=0.05. EPSCs were blocked by CNQX or DNQX (10-20 μM) and IPSPs were inhibited by bicuculine (20 μM).
# [1] = system: iPSC-derived neuronal networks; test: Calcium imaging of spontaneous calcium transients in iPSC-derived neuronal networks; settings: drug treatment, concentration not printed (FIG. 11A, 11C, 11D)
# Procedure: Neuronal networks derived from human iPSCs were previously infected with the lentiviral vector carrying the Syn::DsRed reporter construct. Cell cultures were washed twice with sterile Krebs HepesHEPES Buffer (KHB) (10 mM HEPES, 4.2 mM NaHCO3, 10 mM dextrose, 1.18 mM MgSO4.2H2O, 1.18 mM KH2PO4, 4.69 mM KCl, 118 mM NaCl, 1.29 mM CaCl2; pH 7.3) and incubated with 0.2-0.5 μM Fluo-4AM (Molecular Probes/Invitrogen, Carlsbad, Calif.) in KHB for 40 minutes at room temperature. Excess dye was removed by washing twice with KHB and an additional 20-minute minutes incubation was done to equilibrate intracellular dye concentration and allow de-esterification. Time-lapse image sequences (200×100× magnification) of 5000 frames were acquired at 28 Hz with a region of 336×256 pixels, using a Hamamatsu ORCA-ER digital camera (Hamamatsu Photonics K.K., Hamamatsu City, Japan) with a 488 mm (FITC) filter on an Olympus IX81 inverted fluorescence confocal microscope (Olympus Optical, Tokyo, Japan). […]
# ImageJ, an NIH funded open source, JAVA-based morphometric application, was used to allow manual selection of individual cells on the xy-plane of each movie using circles of 4 pixels (˜5 μm) in diameter. Each cell was considered as an individual region of interest (ROIs) and the average fluorescence intensity was calculated for each ROI in each frame using Time Series Analyzer ImageJ plugin. […]
# RTT-derived neurons = test: VGLUT1 puncta (glutamatergic synapse) quantification in RTT-iPSC-derived neurons, rescue experiments; assay type: cell-based, human; settings: for VGLUT1 puncta number / glutamatergic synapse number: RTT-derived neurons carrying different MeCP2 mutations, IGF1 10 μg/mL for 1 week
# WT neurons = test: VGLUT1 puncta (glutamatergic synapse) quantification in WT-iPSC-derived control neurons; assay type: cell-based, human; settings: gentamicin 400 ug/ml, 1 week
# Description: Female RTT and control fibroblasts were generated from explants of dermal biopsies following informed consent under protocols approved by the University of California San Diego. The Syn::EGFP or DsRed reporter vector was obtained by cloning the Synapsin-1 promoter in a lentivirus backbone. The shRNA against a target sequence on the human MeCP2 gene was cloned in the LentiLox3.7 lentivirus vector. Retrovirus vectors containing the Oct4, c-Myc, Klf4 and Sox2 human cDNAs from Yamanaka's group (Takahashi et al., 2007, Id.) were obtained from Addgene. Two days after infection, fibroblasts were plated on mitotically inactivated mouse embryonic fibroblasts (Chemicon) with hESC medium. After 2 weeks, iPSC colonies were directly transferred to feeder-free conditions on matrigel-coated dishes (BD) using mTeSRTM1 (StemCell Technologies), and passed manually. […]
# Cells were briefly fixed in 4% paraformaldehyde and then permeabilized with 0.5% Triton-X100 in PBS. […] Fluorescent signals were detected using a Zeiss inverted microscope and images were processed with Photoshop CS3 (Adobe Systems). […] For synapse quantification, images were taken by a z-step of 1 μm using Biorad radiance 2100 confocal microscope. Synapse quantification was done blinded to genotype. Only VGLUT1 puncta along Map2-positive processes were counted. […]
# MeCP2 = MeCP2 protein level by Western blot in RTT neurons (Q244X); assay type: cell-based, human; settings: gentamicin
compound,measurement,setting,value
N#Cc1cc2[nH]c(=O)c(=O)[nH]c2cc1[N+](=O)[O-] [CNQX],EPSCs,iPSC-derived neurons,blocked
O=[N+]([O-])c1cc2nc(O)c(O)nc2cc1[N+](=O)[O-] [DNQX],EPSCs,iPSC-derived neurons,blocked
COc1ccc(-c2ccc(=N)n(CCCC(=O)O)n2)cc1 [Gabazine],intracellular calcium transients,[1],increased
CN1CCc2cc3c(cc2[C@H]1[C@@H]1OC(=O)c2c1ccc1c2OCO1)OCO3 [bicuculine],IPSPs,iPSC-derived neurons; 20 μM,inhibited
"IGF1: IGF1 (Peprotech), candidate for pharmacological treatment of RTT",VGLUT1 puncta number / glutamatergic synapse number,RTT-derived neurons,increased
same,VGLUT1 puncta number / glutamatergic synapse number,RTT-derived neurons; listed as IFG1,above normal levels
gentamicin,number of VGLUT1 puncta in control neurons,WT neurons,lowered
same,rescue of RTT neurons (VGLUT1 puncta),"RTT-derived neurons; RTT neurons, higher gentamicin dose 400 ug/ml, 1 week",did not rescue
same,glutamatergic synapse numbers (VGLUT1 puncta),"RTT-derived neurons; RTT-Q244X clones 3 and 4 derived neurons, lower gentamicin dose (100 ug/ml), 1 week",increased; also recorded: rescuing; also recorded: rescue
same,WT MeCP2 protein levels,"MeCP2; RTT neurons (Q244X), after 2 weeks (FIG. 10E)",increased
same,MeCP2 protein levels,"MeCP2; RTT-Q244X clones 3 and 4 derived neurons, after 1 week",increase
